The supplement of paper PMC10933113
Structures can show the parent of a compound that is named as a salt. ± gives the uncertainty stated by the source.

Assays:
THP-1 = assay: efficacy of IL-8 induction relative to DMSO (% activity); higher = stronger induction; conditions: exposure time: 18 h
[1] = tested on: lysine peptide Ac-RFAAKAA-COOH; assay: efficacy of lysine peptide change (negative = depletion) (% activity); higher = less depletion; conditions: incubation time: 24 h
[2] = tested on: cysteine peptide Ac-RFAACAA-COOH; assay: efficacy of cysteine peptide change (negative = depletion) (% activity); higher = less depletion; conditions: incubation time: 24 h
[3] = tested on: KeratinoSens (HaCaT ARE-luciferase) cells; assay: efficacy of ARE luciferase induction relative to DMSO (% activity over DMSO); higher = stronger induction; conditions: exposure time: 24 h

Compound	efficacy of IL-8 induction (THP-1)	efficacy of lysine peptide change [1]	efficacy of cysteine peptide change [2]	efficacy of ARE luciferase induction [3]
CC(=O)C1(C)CC2=C(CCCC2(C)C)CC1C (configuration not stated)	5.26 ± 9.1	3.3 ± 5.7	-16.5 ± 5.3	13.2 ± 8.8
CC(C)CC(NC(=O)OCC1c2ccccc2-c2ccccc21)C(=O)O (stereo in doubt) [N-(9-Fluorenylmethoxycarbonyl)-L-leucine]	6.39 ± 11	0.13 ± 15	-6.72 ± 6	65 ± 53
c1ccc(-c2cccc(-c3ccccc3)c2)cc1 [1,1':3',1''-Terphenyl]	9.01 ± 8.6	7.59 ± 13	-4.8 ± 8.3	21.9 ± 16
c1ccc(SCCSc2ccccc2)cc1 [1,2-Bis(phenylthio)ethane]	0	-9.19 ± 10	3.83 ± 6.6	40.6 ± 11
O=[N+]([O-])c1cc([N+](=O)[O-])c2ccccc2c1 [1,3-Dinitronaphthalene]	0	-15.1 ± 14	-32.4 ± 17	29.3 ± 10
CCC(=O)C=Cc1ccc(OC)cc1 [1-(4-Methoxyphenyl)-1-pentene-3-one]	0	29.4 ± 1.8	-4.91 ± 8.5	-11.5 ± 51
CC(C)(C)C(=O)CCl [1-Chloro-3,3-dimethyl-butan-2-one]	5.09 ± 4.6	-4.45 ± 16	-43.1 ± 7.6	26.8 ± 9.2
CCCCCCCCCCCCO [1-Dodecanol]	0	-9.21 ± 17	0	9.49 ± 13
c1ccc(-c2ccccn2)nc1 [2,2'-Dipyridyl]	0	-0.86 ± 12	-15.1 ± 3.5	45.2 ± 39
Nc1ccc(Cl)cc1Cl [2,4-Dichloroaniline]	8.9 ± 7.7	6.42 ± 18	0	3.01 ± 5.2
CC(C)c1ccc2cc(C(C)C)ccc2c1 [2,6-Diisopropylnaphthalene]	2.46 ± 4.3	1.65 ± 26	7.33 ± 6.5	28.7 ± 11
CCCCCCCCCCCCOCCO [2-(Dodecyloxy)ethanol]	-3.05 ± 5.3	3.27 ± 16	73.8	8.82 ± 15
Oc1ccc(-c2ccccc2)cc1Cl [2-Chloro-4-phenylphenol]	3.65 ± 6.3	3.75 ± 3.3	0.73 ± 13	22.4 ± 9.2
CCCCCCC(C)O (configuration not stated) [2-Octanol]	0	-5.58 ± 9.7	0	0
CCCCOCCOCCOCCO [2-[2-(2-Butoxyethoxy)ethoxy]ethanol]	3.34 ± 5.8	207 ± 33	37.2 ± 7.3	75.4 ± 120
COc1ccc(O)c(C(C)(C)C)c1 [2-tert-Butyl-4-methoxyphenol]	1.96 ± 3.4	5.8 ± 5	-37.3 ± 14	4.91 ± 25

Compound	efficacy of IL-8 induction (THP-1)	efficacy of lysine peptide change [1]	efficacy of cysteine peptide change [2]	efficacy of ARE luciferase induction [3]
CCCCCCCCCCC=CC1CC(=O)OC1=O (configuration not stated) [3-(Dodecenyl)dihydro-2,5-furandione]	-1.83 ± 3.2	-22.7 ± 13	0	3.3 ± 5.7
CC(C)(C)c1ccc(C(=O)CCCCl)cc1 [4'-Tert-butyl-4-chlorobutyrophenone]	0	17.7 ± 16	94.9	38.6 ± 9.4
CCCCCCOc1ccc(O)cc1 [4-(Hexyloxy)phenol]	0.98 ± 10			20 ± 18
Nc1ccc(-c2ccccc2)cc1 [4-Biphenylamine hydrochloride]	0	-3.96 ± 11	-6.9 ± 6	12.3 ± 11
COc1ccc2[nH]cc(CCN(C(C)C)C(C)C)c2c1 [5-Methoxy-N,N-diisopropyltryptamine hydrochloride]	1.45 ± 2.5	138 ± 57	-5.5 ± 9.5	19.1 ± 7.6
O=C(O)c1ccc(=O)[nH]c1 [6-Hydroxynicotinic acid]	0	-6.78 ± 17	12.2 ± 12	27.8 ± 30
CC(C)c1ccc2oc3nc(N)c(C(=O)O)cc3c(=O)c2c1 [Amlexanox]	8.52 ± 7.4	7.32 ± 13	4.82 ± 8.3	28.6 ± 29
CCc1oc2ccccc2c1C(=O)c1cc(I)c(O)c(I)c1 [Benziodarone]	0	-10.2 ± 9.7	-8.72 ± 7.7	17.7 ± 22
CC(=O)Oc1ccc(C(c2ccc(OC(C)=O)cc2)c2ccccn2)cc1 [Bisacodyl]	0	26.8 ± 7.9	3.97 ± 6.9	30.5 ± 18
CCC(C)(c1ccc(O)cc1)c1ccc(O)cc1 [Bisphenol B]	9.18 ± 8.1	31.9 ± 11	2.81 ± 4.9	38.7 ± 21
CCCCCCCC(=O)Oc1c(Br)cc(C#N)cc1Br [Bromoxynil octanoate]	0	-17.8 ± 10	-2.83 ± 4.9	2.61 ± 12
C=C(C)C(=O)Nc1ccc(Cl)c(Cl)c1 [Chloranocryl]	1.33 ± 7.2	82.1 ± 16	4.33 ± 7.5	23.2 ± 7
O=C(O)c1cn(C2CC2)c2cc(N3CCNCC3)c(F)cc2c1=O [Ciprofloxacin]	0	-2.18 ± 19	8.17 ± 8.2	14.6 ± 25
C#CCN(C)CCCOc1ccc(Cl)cc1Cl [Clorgyline hydrochloride]	0	20.7 ± 22	42.2 ± 21	43.6 ± 25
O=C(O)CCCCCCCCC(=O)O [Decanedioic acid]	0.59 ± 6	3.76 ± 20	54.5	5.23 ± 4.5
